Results published in article PMC12736194, “1-Azinyl-1′-Alkenylferrocenes with Anticholinesterase, Antioxidant, and Antiaggregating Activities as Multifunctional Agents for Potential Treatment of Alzheimer’s Disease” (Pharmaceuticals, 2025).

Assays:
[1] = Ferric reducing antioxidant power (FRAP) assay;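 on Exp. FRAP, TE: same experimental FRAP TE values reprinted in Table 4 beside calculated BDE and IP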; conditions: for Ferric Reducing Antioxidant Power, TE: Trolox equivalents, acetate buffer pH 3.6, 1 h, 37 °C; for Exp. FRAP, TE: Water, Table 4
[2] = ABTS radical cation scavenging activity assay;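 on Exp. ABTS, TEAC: same experimental ABTS TEAC values reprinted in Table 4 beside calculated BDE and IP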; conditions: for IC50: ABTS^•+ 100 μM; for IC50 / ABTS^•+-Scavenging Activity, TEAC: ethanol, 1 h; for ABTS^•+-Scavenging Activity, TEAC: Trolox equivalent antioxidant capacity, mean ± SEM, n = 3; for Exp. ABTS, TEAC: Ethanol, Table 4
[3] = tested on: porcine (Sus scrofa) liver CES (SsCES); test: Inhibition of SsCES (spectrophotometric, 4-NPA substrate); type: biochemical; conditions: mean ± SEM, n = 3; for Inhibition of SsCES, % inhibition at 20 μM: compound 20 μM, n.a. = not active
Source text: (§1) In these experiments, human (Homo sapiens) erythrocyte AChE (HsAChE), equine (Equus caballus) serum BChE (EcBChE), and porcine (Sus scrofa) liver CES (SsCES) were used because of their ready availability, relatively low cost, and high sequence homology of EcBChE and SsCES to the corresponding human enzymes.
Although the dominant carboxylesterase in porcine liver is CES1 [64], the preparation sourced from Sigma-Aldrich is not a purified or recombinant CES1. Therefore, we have designated the preparation used in our experimental studies as SsCES. However, in computational molecular docking studies, it is necessary to choose a single defined protein as the docking target. Thus, the logical choice for our computational studies of CES was the most abundant and best characterized isoform found in porcine liver, which is SsCES1.
(§2) Enzymes, substrates, and reference compounds were sourced from Sigma-Aldrich (St. Louis, MO, USA). Enzyme activity was measured spectrophotometrically according to [91] using ATCh iodide, BTCh iodide, and 4-NPA as substrates for HsAChE, EcBChE, and SsCES, respectively. Experimental conditions included a K/Na-phosphate buffer (100 mM), at 25 °C, with pH 7.5 for AChE and BChE assays, and pH 8.0 for CES assays. Measurements were conducted on a BioRad Benchmark Plus microplate spectrophotometer (Hercules, CA, USA). Test compounds were dissolved in DMSO with a final solvent concentration of 2% (v/v) in the incubation mixture.

[4] = target: T1, human β-amyloid (1–42) (HsAβ42) (Homo sapiens, UniProt P05067); test: Inhibition of HsAβ42 self-aggregation (thioflavin T fluorescence); type: biochemical; conditions: HsAβ42 50 µM, compound 100 µM, 24 h, 37 °C; n.a. = not active
T1 construct: purchased AnaSpec Inc
T1 sequence (P05067 672-713 limits assumed): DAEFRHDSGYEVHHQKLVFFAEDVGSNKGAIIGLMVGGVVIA
Method: The potential of compounds from all three groups (1a-e, 5a-e, 7a-d) to inhibit HsAβ42 self-aggregation was evaluated using a Thioflavin T (ThT) fluorescence assay.
Inhibition of HsAβ42 self-aggregation by test compounds was studied using the thioflavin T (ThT) fluorescence method with minor modifications as described in detail in [79]. Lyophilized HFIP-pretreated HsAβ42 (AnaSpec Inc., Fremont, CA, USA, 0.5 mg) was dissolved in DMSO to obtain a stable 500 μM solution. The samples of 50 μM HsAβ42 in 215 mM Na-phosphate buffer pH 8.0 were incubated for 24 h at 37 °C in the absence or presence of 100 μM test compounds. Myricetin in the same concentration was used as a reference. After incubation, 5 μM ThT in 50 mM glycine-NaOH buffer pH 8.5 was added, and the fluorescence was measured at 440 nm (exc.) and 485 nm (emis.) with a FLUOStar Optima microplate reader. Blanks consisted of 215 mM Na-phosphate buffer, pH 8.0, 20% (v/v) DMSO or test compounds, respectively. The inhibition (%) of HsAβ42 self-aggregation by the test compounds was calculated.

[5] = target: T2, equine (Equus caballus) serum BChE (EcBChE) (Equus caballus, UniProt P81908); test: Inhibition of EcBChE (spectrophotometric, BTCh iodide substrate); type: biochemical; conditions: mean ± SEM, n = 3; for Inhibition of EcBChE, % inhibition at 20 μM: compound 20 μM, n.a. = not active; for IC50: K/Na-phosphate buffer pH 7.5, 25 °C
T2 construct: equine (Equus caballus) serum BChE (EcBChE); purchased Sigma-Aldrich; host or cells: horse serum
T2 sequence (P81908 whole entry): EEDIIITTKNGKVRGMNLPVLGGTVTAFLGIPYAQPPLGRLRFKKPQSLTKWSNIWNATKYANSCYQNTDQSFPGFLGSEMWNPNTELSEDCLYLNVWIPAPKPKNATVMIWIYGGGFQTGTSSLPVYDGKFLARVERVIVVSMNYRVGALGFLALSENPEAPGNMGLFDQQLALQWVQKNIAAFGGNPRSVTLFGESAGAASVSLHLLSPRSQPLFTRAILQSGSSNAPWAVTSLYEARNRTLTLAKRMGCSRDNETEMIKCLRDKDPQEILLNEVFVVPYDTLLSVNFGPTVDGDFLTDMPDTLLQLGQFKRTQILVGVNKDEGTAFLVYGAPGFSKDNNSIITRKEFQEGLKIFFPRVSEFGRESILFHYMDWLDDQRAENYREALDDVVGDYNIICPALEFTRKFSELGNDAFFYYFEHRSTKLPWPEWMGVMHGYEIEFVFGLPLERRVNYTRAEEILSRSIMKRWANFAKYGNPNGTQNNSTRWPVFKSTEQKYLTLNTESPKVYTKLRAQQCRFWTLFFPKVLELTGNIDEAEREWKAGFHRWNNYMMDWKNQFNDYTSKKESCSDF
Method: as §1, §2

[6] = target: T3, human (Homo sapiens) erythrocyte AChE (HsAChE) (Homo sapiens, UniProt P22303); test: Inhibition of HsAChE (spectrophotometric, ATCh iodide substrate); type: biochemical; conditions: mean ± SEM, n = 3; for Inhibition of HsAChE, % inhibition at 20 μM: compound 20 μM, n.a. = not active
T3 construct: human (Homo sapiens) erythrocyte AChE (HsAChE); purchased Sigma-Aldrich; host or cells: human erythrocytes
T3 sequence (P22303 32-617 isoform P22303-2 limits assumed): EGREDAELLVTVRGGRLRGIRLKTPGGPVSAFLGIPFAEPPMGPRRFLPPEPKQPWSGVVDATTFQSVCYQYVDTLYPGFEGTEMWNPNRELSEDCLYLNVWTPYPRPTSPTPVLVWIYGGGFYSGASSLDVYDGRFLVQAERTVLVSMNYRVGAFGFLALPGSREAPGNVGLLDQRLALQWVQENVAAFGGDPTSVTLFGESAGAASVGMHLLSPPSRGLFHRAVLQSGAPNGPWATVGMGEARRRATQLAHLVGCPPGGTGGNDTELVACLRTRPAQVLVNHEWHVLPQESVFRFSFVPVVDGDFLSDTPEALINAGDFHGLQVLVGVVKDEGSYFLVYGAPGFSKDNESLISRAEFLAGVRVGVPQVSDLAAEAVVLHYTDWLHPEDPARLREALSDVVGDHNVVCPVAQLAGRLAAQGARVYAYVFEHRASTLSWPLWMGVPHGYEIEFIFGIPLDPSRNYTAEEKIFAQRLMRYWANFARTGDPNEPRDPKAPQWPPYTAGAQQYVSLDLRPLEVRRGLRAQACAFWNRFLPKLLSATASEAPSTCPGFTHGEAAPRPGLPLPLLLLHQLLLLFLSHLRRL
Method: as §1, §2

[7] = target: T4, peripheral anionic site (PAS) of Electrophorus electricus AChE (EeAChE) (Electrophorus electricus, UniProt O42275); test: Propidium displacement from the EeAChE PAS (fluorescence); type: binding; conditions: compound concentration 20 µM; EeAChE 7 μM, propidium iodide 8 μM, Tris-HCl pH 8.0; n.a. = not active
T4 construct: purchased Sigma-Aldrich type VI-S
T4 sequence (O42275 24-633): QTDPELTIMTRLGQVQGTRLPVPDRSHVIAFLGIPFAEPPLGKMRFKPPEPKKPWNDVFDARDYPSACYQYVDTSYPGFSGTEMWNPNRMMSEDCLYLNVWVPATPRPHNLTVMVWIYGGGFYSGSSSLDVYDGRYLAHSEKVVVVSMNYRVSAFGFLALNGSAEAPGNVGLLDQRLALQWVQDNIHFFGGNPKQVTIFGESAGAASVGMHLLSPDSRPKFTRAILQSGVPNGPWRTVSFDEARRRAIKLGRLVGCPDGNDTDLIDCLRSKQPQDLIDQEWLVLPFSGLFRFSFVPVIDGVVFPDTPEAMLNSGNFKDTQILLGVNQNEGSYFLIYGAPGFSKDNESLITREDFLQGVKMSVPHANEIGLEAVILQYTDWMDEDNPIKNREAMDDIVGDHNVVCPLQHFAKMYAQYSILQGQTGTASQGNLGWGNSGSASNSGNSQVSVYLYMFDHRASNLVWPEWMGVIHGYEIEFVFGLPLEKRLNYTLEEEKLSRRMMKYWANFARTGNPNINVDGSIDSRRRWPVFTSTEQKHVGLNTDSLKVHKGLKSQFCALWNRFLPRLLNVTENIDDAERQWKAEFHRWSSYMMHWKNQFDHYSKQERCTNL
Method: A fluorescence-based assay assessed the ability of test compounds to competitively displace propidium iodide from AChE’s PAS [65, 93]. […] EeAChE (7 μM) was incubated with 20 μM test compounds in Tris-HCl buffer (pH 8.0) for 15 min, followed by addition of propidium iodide (8 μM) as described in detail in [95]. Fluorescence readings (530 nm excitation, 600 nm emission) were obtained using a FLUOStar Optima microplate reader (LabTech, Ortenberg, Germany). Displacement (%) was calculated.

SMILES | Ferric Reducing Antioxidant Power, TE [1] | IC50 [2] [µM] | ABTS^•+-Scavenging Activity, TEAC [2] | Exp. FRAP, TE [1] | Exp. ABTS, TEAC [2] | Inhibition of SsCES, % inhibition at 20 μM [3] [%] | HsAβ42 self-Aggregation Inhibition, (%) [4] [%] | Inhibition of EcBChE, % inhibition at 20 μM [5] [%] | Inhibition of HsAChE, % inhibition at 20 μM [6] [%] | Propidium Displacement, (%) [7] | IC50 [5] [µM] | IC50 ([6]; K/Na-phosphate buffer pH 7.5, 25 °C) [µM] | IC50 ([3]; K/Na-phosphate buffer pH 8.0, 25 °C) [µM]
Cc1c(C)c2c(c(C)c1O)CCC(C)(C(=O)O)O2 (stereo not shown) [Trolox, reference compound] | 1.0 | 20.1 ± 1.2 | 1.0 |  |  |  |  |  |  |  |  |  | 
[Fe+2].c1cc[cH-]c1.c1ccc2c(-[c-]3cccc3)c3ccccc3[nH+]c2c1 [1cp] |  |  |  | 1.59 ± 0.17 | 1.50 ± 0.08 |  |  |  |  |  |  |  | 
[Fe+2].c1cc[cH-]c1.c1ccc(-[c-]2cccc2)[nH+]c1 [1ap] |  |  |  | 2.05 ± 0.02 | 2.10 ± 0.10 |  |  |  |  |  |  |  | 
C=C(C)[c-]1cccc1.[Fe+2].c1ccc2c(-[c-]3cccc3)c3ccccc3[nH+]c2c1 [5cp] |  |  |  | 2.45 ± 0.14 | 1.35 ± 0.06 |  |  |  |  |  |  |  | 
C=C[c-]1cccc1.[Fe+2].c1ccc2c(-[c-]3cccc3)c3ccccc3[nH+]c2c1 [7cp] |  |  |  | 1.36 ± 0.01 |  |  |  |  |  |  |  |  | 
C=C(C)[c-]1cccc1.[Fe+2].c1ccc(-[c-]2cccc2)[nH+]c1 [5ap] |  |  |  | 2.85 ± 1.3 | 2.20 ± 0.10 |  |  |  |  |  |  |  | 
C=C[c-]1cccc1.[Fe+2].c1ccc2c(-[c-]3cccc3)c3ccccc3nc2c1 [7c, 1-(Acridin-9-yl)-1′-Vinylferrocene] | 1.36 ± 0.01 | 6.9 ± 0.3 | 2.9 ± 0.1 |  |  | 14.1 ± 1.5 | 86.9 ± 6.1 | 7.6 ± 1.1 | 22.8 ± 1.8 | 10.4 ± 0.8% |  |  | 
[Fe+2].c1cc[cH-]c1.c1ccc(-[c-]2cccc2)nc1 [1a] | 2.05 ± 0.02 | 10.8 ± 0.6 | 2.1 ± 0.1 |  | 2.10 ± 0.10 | 17.5 ± 1.3 | 43.4 ± 3.4 | 20.3 ± 1.4 |  | zero |  |  | 
C=C(C)[c-]1cccc1.[Fe+2].c1ccc2[nH+]c(-[c-]3cccc3)ccc2c1 [5bp] |  |  |  | 3.13 ± 1.7 | 4.30 ± 0.20 |  |  |  |  |  |  |  | 
[Fe+2].c1cc[cH-]c1.c1cc[cH-]c1 [Fc, ferrocene] | 0.79 ± 0.02 | 32.9 ± 1.9 | 0.57 ± 0.03 | 0.79 ± 0.02 | 0.57 ± 0.03 | 4.2 ± 0.7 | 3.5 ± 0.4 | 6.7 ± 1.0 | 9.6 ± 1.4 | zero |  |  | 
C=C(C)[c-]1cccc1.[Fe+2].c1cc[c-](-c2ccnnc2)c1 [5e, 1-Isopropenyl-1′-(Pyridazin-4-yl)Ferrocene] | 2.65 ± 0.02 | 9.3 ± 0.4 | 2.5 ± 0.2 |  |  |  | 48.6 ± 3.5 |  |  | zero |  |  | 
C=C[c-]1cccc1.[Fe+2].c1cc[cH-]c1 [compound 9, vinylferrocene, reference compound] | 1.04 ± 0.02 | 19.4 ± 0.1 | 1.00 ± 0.04 | 1.04 ± 0.02 | 1.00 ± 0.04 | 23.4 ± 2.1 | 44.9 ± 3.1 |  | 4.2 ± 0.9 | zero |  |  | 
[Fe+2].c1cc[c-](-c2ccnnc2)c1.c1cc[cH-]c1 [1e, 1-(pyridazin-4-yl)ferrocene] | 1.72 ± 0.02 | 9.2 ± 0.5 | 2.3 ± 0.1 |  |  |  | 53.3 ± 3.7 | 13.1 ± 1.4 |  | zero |  |  | 
C=C[c-]1cccc1.[Fe+2].c1ccc(-[c-]2cccc2)nc1 [7a, 1-(Pyridin-2-yl)-1′-Vinylferrocene] | 2.13 ± 0.03 | 8.4 ± 0.3 | 2.60 ± 0.08 |  | 2.60 ± 0.03 | 18.5 ± 1.6 | 84.6 ± 7.5 |  |  | 9.6 ± 0.7% | 20.1 ± 1.6 | 16.5 ± 1.3 | 
C=C(C)[c-]1cccc1.[Fe+2].c1cc[cH-]c1 [compound 8, isopropenylferrocene, reference compound] | 1.1 ± 0.1 | 26.3 ± 1.5 | 0.73 ± 0.04 | 1.10 ± 0.10 | 0.73 ± 0.04 | 2.9 ± 0.6 |  | 3.9 ± 0.8 |  | zero |  |  | 
C=C(C)[c-]1cccc1.[Fe+2].c1ccc2c(-[c-]3cccc3)c3ccccc3nc2c1 [5c] | 2.45 ± 0.14 | 15.8 ± 0.8 | 1.35 ± 0.06 |  |  |  | 90.1 ± 7.2 |  | 36.7 ± 3.3 | 10.5 ± 0.9% | 96.7 ± 6.6 |  | 
C=C(C)[c-]1cccc1.[Fe+2].c1ccc(-[c-]2cccc2)nc1 [5a] | 2.85 ± 0.13 | 9.4 ± 0.5 | 2.2 ± 0.1 |  | 2.20 ± 0.10 |  | 62.4 ± 4.9 | 18.3 ± 1.6 | 4.4 ± 1.1 | zero |  |  | 
C=C[c-]1cccc1.[Fe+2].c1ccc(-[c-]2cccc2)[nH+]c1 [7ap] |  |  |  | 2.13 ± 0.03 | 2.60 ± 0.03 |  |  |  |  |  |  |  | 
O=[N+]([O-])c1ccc(OP(=O)(O)Oc2ccc([N+](=O)[O-])cc2)cc1 [BNPP, bis-4-nitrophenyl phosphate, reference compound] |  |  |  |  |  | 99.1 ± 0.9 |  |  |  |  |  |  | 1.8
[Fe+2].c1cc[cH-]c1.c1ccc2[nH+]c(-[c-]3cccc3)ccc2c1 [1bp] |  |  |  | 2.21 ± 0.01 | 4.20 ± 0.20 |  |  |  |  |  |  |  | 
[Fe+2].c1cc[cH-]c1.c1ccc2c(-[c-]3cccc3)c3ccccc3nc2c1 [1c] | 1.59 ± 0.17 | 14.6 ± 0.3 | 1.50 ± 0.08 |  |  |  | 71.0 ± 4.9 | 21.2 ± 1.6 | 6.5 ± 0.8 | 11.2 ± 0.9% |  |  | 
C=C[c-]1cccc1.[Fe+2].c1ccc2[nH+]c(-[c-]3cccc3)ccc2c1 [7bp] |  |  |  | 2.21 ± 0.02 |  |  |  |  |  |  |  |  | 
